Experimental data as given in PubChem BioAssay AID248 (DTP/NCI, 2004).
Several values for one entry are separate records, joined by “and”; a condition that tells them apart may be missing. Identical values can stand only once. Toxic doses and inconclusive results are not listed. Cut-off read from the data, not from the text of the source: active = T/C of 150% or more; inactive = T/C below 125%.

System: L1210 leukemia ip in BDF1 mice, survival T/C
Test: NCI In Vivo Anticancer Drug Screen. Data for tumor model L1210 Leukemia (intraperitoneal) in B6D2F1 (BDF1) mice
Conditions: endpoint: mean survival time, higher = longer survival
How it was run: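 Transplantable tumor model; survival measured in treated vs vehicle control mice. Value = treated/control.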

[1] = dose: 100.0 mg/kg/injection, schedule: Q04DX003 (ip), vehicle: Klucel (hydroxypropylcellulose) (HPC)
[2] = dose: 200.0 mg/kg/injection, schedule: Q04DX003 (ip), vehicle: Klucel (hydroxypropylcellulose) (HPC)
[3] = dose: 400.0 mg/kg/injection, schedule: Q04DX003 (ip), vehicle: Klucel (hydroxypropylcellulose) (HPC)
[4] = dose: 100.0 mg/kg/injection, schedule: Q04DX002 (ip), vehicle: Klucel (hydroxypropylcellulose) (HPC)
[5] = dose: 100.0 mg/kg/injection, schedule: Q01DX009 (ip), vehicle: Klucel (hydroxypropylcellulose) (HPC)
[6] = dose: 200.0 mg/kg/injection, schedule: Q01DX009 (ip), vehicle: Klucel (hydroxypropylcellulose) (HPC)
[7] = dose: 100.0 mg/kg/injection, schedule: Q04DX003 (ip), vehicle: saline
[8] = dose: 200.0 mg/kg/injection, schedule: Q04DX003 (ip), vehicle: saline
[9] = dose: 400.0 mg/kg/injection, schedule: Q04DX003 (ip), vehicle: saline
[10] = dose: 100.0 mg/kg/injection, schedule: Q01DX001 (ip), vehicle: carboxymethylcellulose (CMC)
[11] = dose: 200.0 mg/kg/injection, schedule: Q01DX001 (ip), vehicle: carboxymethylcellulose (CMC)
[12] = dose: 400.0 mg/kg/injection, schedule: Q01DX001 (ip), vehicle: carboxymethylcellulose (CMC)

Measured: T/C

O=C(COc1ccc(Cl)c(Cl)c1)Nc1ccc[n+](Cc2ccc(S(=O)(=O)F)c(Cl)c2)c1
inactive: [1] 98 % of control | [2] 93 % of control | [3] 97 % of control

C/C=C/CC1(Cc2ccccc2)C(=O)NC(=S)NC1=O
inactive: dose: 10.0 mg/kg/injection, schedule: Q01DX001 (ip), vehicle: saline 102 % of control | dose: 20.0 mg/kg/injection, schedule: Q01DX001 (ip), vehicle: saline 111 % of control

Cc1ccc([N+](=O)[O-])cc1NC(=O)Oc1cc(=O)oc2ccccc12
inactive: [4] 104 % of control | dose: 200.0 mg/kg/injection, schedule: Q04DX002 (ip), vehicle: Klucel (hydroxypropylcellulose) (HPC) 90 % of control | dose: 400.0 mg/kg/injection, schedule: Q04DX002 (ip), vehicle: Klucel (hydroxypropylcellulose) (HPC) 93 % of control

NOCc1csc(NC(=O)Nc2ccccc2)n1
inactive: dose: 18.8 mg/kg/injection, schedule: Q01DX009 (ip), vehicle: saline with Tween-80 95 % of control | dose: 37.5 mg/kg/injection, schedule: Q01DX009 (ip), vehicle: saline with Tween-80 103 % of control | dose: 75.0 mg/kg/injection, schedule: Q01DX009 (ip), vehicle: saline with Tween-80 105 % of control

Nc1cccc(OCCCCCOc2cccc(N)c2)c1
inactive: [5] 93 % of control | [6] 96 % of control

CCOC(=O)N(Cl)Cl
inactive: dose: 3.13 mg/kg/injection, schedule: Q04DX003 (ip), vehicle: saline 105 % of control | dose: 6.25 mg/kg/injection, schedule: Q04DX003 (ip), vehicle: saline 98 % of control | dose: 12.5 mg/kg/injection, schedule: Q04DX003 (ip), vehicle: saline 98 % of control

[Cl][Pd][Cl].[NH-]C1CCCC1.[NH-]C1CCCC1
inactive: dose: 6.25 mg/kg/injection, schedule: Q04DX002 (ip), vehicle: saline 102 % of control | dose: 12.5 mg/kg/injection, schedule: Q04DX002 (ip), vehicle: saline 105 % of control | dose: 25.0 mg/kg/injection, schedule: Q04DX002 (ip), vehicle: saline 97 % of control

CNC1=C(C)C(=O)C2=C(C1=O)C(COC(N)=O)C1(O)C3C(CN21)N3C (configuration not stated)
inactive: dose: 6.6 mg/kg/injection, schedule: Q01DX001 (ip), vehicle: alcohol 100 % of control | dose: 15.0 mg/kg/injection, schedule: Q01DX001 (ip), vehicle: acetone 104 % of control

c1ccc2[nH]c(-c3ccc(N=Nc4ccc(-c5nc6ccccc6[nH]5)cc4)cc3)nc2c1
inactive: dose: 15.0 mg/kg/injection, schedule: Q01DX Z (ip), vehicle: other 100 % of control | dose: 30.0 mg/kg/injection, schedule: Q01DX Z (ip), vehicle: other 97 % of control | dose: 60.0 mg/kg/injection, schedule: Q01DX Z (ip), vehicle: other 105 % of control | dose: 120.0 mg/kg/injection, schedule: Q01DX Z (ip), vehicle: other 96 % of control | dose: 180.0 mg/kg/injection, schedule: Q01DX Z (ip), vehicle: carboxymethylcellulose (CMC) 108 % of control | dose: 270.0 mg/kg/injection, schedule: Q01DX Z (ip), vehicle: carboxymethylcellulose (CMC) 101 % of control

CC/C=N/Nc1ccnc(SCc2ccccc2)n1
inactive: dose: 100.0 mg/kg/injection, schedule: Q04DX003 (ip), vehicle: gum acacia 103 % of control | dose: 200.0 mg/kg/injection, schedule: Q04DX003 (ip), vehicle: gum acacia 97 % of control | dose: 400.0 mg/kg/injection, schedule: Q04DX003 (ip), vehicle: gum acacia 94 % of control

O=C1NCCO1
inactive: dose: 50.0 mg/kg/injection, schedule: Q04DX003 (ip), vehicle: saline 97 % of control | [5] 103 % of control | [1] 105 % of control | [7] 102 % of control and 106 % of control | [6] 105 % of control | [2] 103 % of control | [8] 95 % of control and 92 % of control and 103 % of control | dose: 400.0 mg/kg/injection, schedule: Q01DX009 (ip), vehicle: Klucel (hydroxypropylcellulose) (HPC) 103 % of control | [3] 103 % of control | [9] 103 % of control and 105 % of control

C/C(CCO)=N/N=C(N)N
inactive: dose: 15.0 mg/kg/injection, schedule: Q01DX Z (ip), vehicle: methylcellulose (MC) 97 % of control | dose: 30.0 mg/kg/injection, schedule: Q01DX Z (ip), vehicle: methylcellulose (MC) 109 % of control | dose: 30.0 mg/kg/injection, schedule: Q01DX Z (oral), vehicle: methylcellulose (MC) 97 % of control | dose: 60.0 mg/kg/injection, schedule: Q01DX Z (oral), vehicle: methylcellulose (MC) 100 % of control

Cc1cc(N(CCCl)CCCl)ccc1C=Nc1ccc(-c2csc(COc3ccccc3)n2)c(Cl)c1
inactive: [10] 95 % of control | [11] 108 % of control | [12] 103 % of control

CN(N(P(N)(Cl)(c1ccccc1)c1ccccc1)P(N)(Cl)(c1ccccc1)c1ccccc1)P(N)(Cl)(c1ccccc1)c1ccccc1
inactive: dose: 100.0 mg/kg/injection, schedule: Q01DX001 (ip), vehicle: steriod suspending solution 113 % of control | dose: 200.0 mg/kg/injection, schedule: Q01DX001 (ip), vehicle: steriod suspending solution 108 % of control

CCCCCCCCC(CO)CCCCCC (configuration not stated)
inactive: [7] 100 % of control | [8] 106 % of control | [9] 92 % of control

CCCSC(=O)N(CC)C(=NCC)c1ccc(NC(=O)c2ccc(C(=O)Nc3ccc(C(=NCC)N(CC)C(=O)SCCC)cc3)cc2)cc1
inactive: dose: 2.25 mg/kg/injection, schedule: Q01DX015 (ip), vehicle: methylcellulose (MC) 104 % of control | dose: 4.5 mg/kg/injection, schedule: Q01DX015 (ip), vehicle: methylcellulose (MC) 100 % of control | dose: 9.0 mg/kg/injection, schedule: Q01DX015 (ip), vehicle: methylcellulose (MC) 100 % of control | dose: 18.0 mg/kg/injection, schedule: Q01DX015 (ip), vehicle: methylcellulose (MC) 102 % of control | dose: 75.0 mg/kg/injection, schedule: Q01DX015 (ip), vehicle: methylcellulose (MC) 90 % of control | dose: 150.0 mg/kg/injection, schedule: Q01DX015 (ip), vehicle: methylcellulose (MC) 86 % of control

COC1OC2COC(c3ccccc3)OC2C(O)C1OC(=S)SSC(=S)OC1C(OC)OC2COC(c3ccccc3)OC2C1O (configuration not stated)
inactive: dose: 25.0 mg/kg/injection, schedule: Q04DX002 (ip), vehicle: Klucel (hydroxypropylcellulose) (HPC) 89 % of control | dose: 50.0 mg/kg/injection, schedule: Q04DX002 (ip), vehicle: Klucel (hydroxypropylcellulose) (HPC) 104 % of control | [4] 112 % of control

C[N+](C)(C)CCC1CCCCC1
inactive: dose: 75.0 mg/kg/injection, schedule: Q01DX001 (ip), vehicle: saline 102 % of control

NC1=NC=NCN1c1ccc(N)cc1
inactive: dose: 25.0 mg/kg/injection, schedule: Q01DX001 (ip), vehicle: saline with Tween-80 96 % of control | dose: 50.0 mg/kg/injection, schedule: Q01DX001 (ip), vehicle: saline with Tween-80 102 % of control | dose: 100.0 mg/kg/injection, schedule: Q01DX001 (ip), vehicle: saline with Tween-80 104 % of control

CC(O)(CCl)C(=O)O (configuration not stated)
inactive: [7] 96 % of control | [8] 98 % of control | [9] 96 % of control

O=C(O)C1(O)c2cc(Br)ccc2-c2ccc(Br)cc21
inactive: dose: 50.0 mg/kg/injection, schedule: Q01DX001 (ip), vehicle: carboxymethylcellulose (CMC) 100 % of control | [10] 97 % of control | [11] 100 % of control | [12] 92 % of control
